This data set in a line: Study A: blood-brain barrier penetration, striatal MetaQuant microdialysis in healthy mice after oral dosing. Format: in vivo, C57B1/6 mice. Particulars: for average peak levels in left and right striatal dialysate: MetaQuant dialysate, not corrected for recovery; for time of average peak levels after compound administration: striatal dialysate. Here is the method:
The present study was designed to determine the free concentration of the compound of formula (I) in the left and right striatum of freely-moving adult male mice after oral administration.
Adult male C57B1/6 mice (22-28 g; Envigo, the Netherlands) were used for the experiments. Following arrival, animals were housed in groups of 5 in polypropylene cages (40×50×20 cm) with wire mesh top in a temperature (22±2° C.) and humidity (55±15%) controlled environment on a 12 hour light cycle (07.00-19.00). Following surgery, animals were housed individually (cages 30×30×40 cm). Standard diet (SDS Diets, RM1 PL) and domestic quality mains water were available ad libitum.
Mice were anesthetized using isoflurane (2% and 500 mL/min O2). Before surgery, Finadyne (1 mg/kg, s.c.) was administered for analgesia during surgery and the post-surgical recovery period. A mixture of bupivacaine and epinephrine was used for local analgesia of the incision site.
The animals were placed in a stereotaxic frame (Kopf instruments, USA). MetaQuant microdialysis probes with a 3 mm exposed polyacrylonitrile membrane (MQ-PAN 33) were implanted bilaterally into the left and right striatum (coordinates for the tip of the probe: AP=+0.8 mm (to bregma), ML=+/−1.7 mm (to midline), DV=−4.0 mm (to dura) with an angle of 0° and the incisor bar set at 0.0 mm. All coordinates were based on “The mouse brain in stereotaxic coordinates” by Paxinos and Franklin (2008). The probes were attached to the skull with a stainless-steel screw and dental cement.
The monosodium salt of the compound of formula (I) was formulated in sterilized tap water at concentrations (with respect to the non-salt form) of 0.2 and 4 mg/mL for oral dosing at 5 mL/kg; 1 mg/kg and 20 mg/kg, respectively.
The MetaQuant microdialysis probes were connected with flexible PEEK tubing (Western Analytical Products Inc. USA; PK005-020) to a microperfusion pump (Harvard) and perfused with a slow flow of artificial CSF (perfusate), containing 147 mM NaCl, 3.0 mM KCl, 1.2 mM CaCl2, and 1.2 mM MgCl2, at a flow rate of 0.12 μL/min and a carrier flow of UP+0.02 M FA+0.04% ascorbic acid at o.8 μL/min. After a minimum of two hours of prestabilisation, microdialysis samples were collected in 60 minute intervals. Following collection of two baseline samples, the compound of formula (I) (1 or 20 mg/kg in sterilised tap water) was administered orally at t=0 minutes. Samples were collected into mini-vials (Microbiotech/se AB, Sweden; 4001029) using an automated fraction collector (UV 8301501, TSE, Univentor, Malta). At the end of the experiment, the animals were sacrificed.
Microdialysate samples from MetaQuant probes contained a nominal volume of 55.2 μL dialysate. Levels of the compound of formula (I) in MetaQuant microdialysate samples were quantified by LC-MS/MS.
The dialysate samples were mixed with acetonitrile and an aliquot of this mixture was injected into the LC system by an automated sample injector (SIL-20AD, Shimadzu, Japan). Calibrators and in-run QC samples were prepared in analytical dialysate of the same composition as the microdialysate samples. […]
Suitable in-run calibration curves were fitted using weighted (1/x) regression and the sample concentrations were determined using these calibration curves. […]

Here are results for 1 molecule from US20220401414A1, “TREATMENT AND PREVENTION OF A NEURODEGENERATIVE DISORDER” (Inflazome Limited, priority 2019, published 2022).

On to `CC(C)n1ccc(S(=O)(=O)NC(=O)Nc2c3c(cc4c2CCC4)CCC3)n1` [compound of formula (I)], for which the “average peak levels in left and right striatal dialysate” value (1 mg/kg oral (monosodium salt in sterilised tap water)) lay in the range of 12 to 13 nM; the “average peak levels in left and right striatal dialysate” value (20 mg/kg oral (monosodium salt in sterilised tap water)) was in the range of 201 to 243 nM. The “time of average peak levels after compound administration” value was 5 h (1 mg/kg oral) and 6 h (20 mg/kg oral). Besides, the blood-brain barrier penetration entry (oral administration) is recorded as “cross the blood-brain barrier following oral administration”.
